Measured values: article PMC11946255, “Extraction of Cannabinoids and Terpenes from Hemp Flowers and Leaves (Cannabis sativa L., Futura 75): Chemical Profiling and Evaluation of Anticancer Properties” (Molecules, 2025)
≈ marks a conversion by molar mass, not a printed value.

Experiments:
[1] = test system: biphenotypic B myelomonocytic leukemia MV4-11; experiment: Antiproliferative activity, MTT assay, MV4-11; assay type: cell-based, human; conditions: 2 μg/mL, 72 h, compared to untreated control cells
Experimental: (§1) Two extracts, Futu 1 and Futu 2, were selected for the study of their antiproliferative activity against six human cancer cell lines: biphenotypic B myelomonocytic leukemia (MV4-11), lung carcinoma (A549), colon adenocarcinoma (HT-29), gastric adenocarcinoma (AGS), and breast carcinomas (MCF-7 (ER+) and MDA-MB-468 (TNBC)). Additionally, their cytotoxicity and potential safety for use were assessed on normal human breast epithelial cells (MCF-10A). This study aimed to determine the effectiveness of these extracts in inhibiting cancer cell growth while ensuring minimal toxicity to normal cells. The first extract, Futu 1, contained the highest amount of cannabinoid fraction (51.57%) among all tested extracts, and the terpene fraction consisted of 9.8% monoterpenes and 90.2% of sesquiterpenes. Futu 1 was obtained using pressurized extraction with the following process parameters: a pressure of 1 bar, a solvent mixture of hexane/ethanol (7:3, v/v), and a temperature of 25 °C. The second extract, Futu 2, was selected for its higher monoterpene content (19.6%) in the terpene fraction in comparison to sesquiterpenes (80.4%) and its 49.49% content of cannabinoids. This extract was also obtained via pressurized extraction, using a pressure of 1 bar, a solvent mixture of hexane/isopropanol (7:3, v/v), and a temperature of −55 °C. After 72 h of incubation of cancer and normal cells with cannabinoids and the extracts Futu 1 or Futu 2, antiproliferative activity was assessed using the MTT assay (for MV4-11) or the SRB assay. The percentage of cell growth inhibition was calculated and IC50 values were determined (Table 3).
Human cell lines: biphenotypic B myelomonocytic leukemia MV4-11, gastric adenocarcinoma AGS, colon adenocarcinoma HT-29, and normal breast MCF-10A cells were obtained from American Type Culture Collection (ATCC) in the United States; lung carcinoma A549 and breast cancer MCF-7 were obtained from European Collection of Authenticated Cell Cultures (ECACC). Human breast cancer MDA-MB-468 cells were obtained from Leibniz Institute DSMZ (German Collection of Microorganisms and Cell Cultures). All the cell lines were maintained at the Hirszfeld Institute of Immunology and Experimental Therapy, PAS, Wroclaw, Poland. MV4-11 and MDA-MB-468 cells were cultured in RPMI 1640 medium (IIET PAS, Wrocław, Poland) with 1.0 mM sodium pyruvate (only MV4-11) and 10% (MV4-11) or 20% (MDA-MB-468) fetal bovine serum (FBS) (all from Merck, Darmstadt, Germany). A549, HT-29, and AGS cells were cultured in RPMI 1640 + Opti-MEM (1:1) medium (IIET PAS, Wrocław, Poland, and Gibco, London, UK) supplemented with 5% FBS (Merck, Darmstadt, Germany) and 1.0 mM sodium pyruvate (only HT-29). […]

[2] = test system: breast cancer MCF-7 (ER+); experiment: Antiproliferative activity, SRB assay, MCF-7; assay type: cell-based, human; conditions: for IC50 MCF-7 / IC50: 72 h incubation, SRB, mean ± SD; for Calculated Selectivity Index SI MCF-7: SI = IC50 MCF-10A / IC50 MCF-7; for IC50: Homo sapiens, MCF7
[3] = test system: normal breast epithelial MCF-10A cells; experiment: Cytotoxicity, SRB assay, MCF-10A; assay type: cell-based, human; conditions: 72 h incubation, non-tumorigenic cells, mean ± SD; for IC50: Homo sapiens, MCF-10A
Experimental: as §1
Human cell lines: biphenotypic B myelomonocytic leukemia MV4-11, gastric adenocarcinoma AGS, colon adenocarcinoma HT-29, and normal breast MCF-10A cells were obtained from American Type Culture Collection (ATCC) in the United States; lung carcinoma A549 and breast cancer MCF-7 were obtained from European Collection of Authenticated Cell Cultures (ECACC). Human breast cancer MDA-MB-468 cells were obtained from Leibniz Institute DSMZ (German Collection of Microorganisms and Cell Cultures). All the cell lines were maintained at the Hirszfeld Institute of Immunology and Experimental Therapy, PAS, Wroclaw, Poland. MV4-11 and MDA-MB-468 cells were cultured in RPMI 1640 medium (IIET PAS, Wrocław, Poland) with 1.0 mM sodium pyruvate (only MV4-11) and 10% (MV4-11) or 20% (MDA-MB-468) fetal bovine serum (FBS) (all from Merck, Darmstadt, Germany). A549, HT-29, and AGS cells were cultured in RPMI 1640 + Opti-MEM (1:1) medium (IIET PAS, Wrocław, Poland, and Gibco, London, UK) supplemented with 5% FBS (Merck, Darmstadt, Germany) and 1.0 mM sodium pyruvate (only HT-29). The MCF-7 cells were cultured in Eagle medium (IIET PAS, Wrocław, Poland) supplemented with 8 microg/mL of insulin and 1% MEM NON-Essential amino acid (all Merck, Darmstadt, Germany). Normal breast epithelial MCF-10A cells were cultured in the HAM’S F-12 medium, which was supplemented with 10% Horse Serum (Gibco, London, UK), 20 ng/mL EGFh, 10 µg/mL insulin, and 0.5 µg/mL Hydrocortisone and 0.05 mg/mL Cholera Toxin from Vibrio cholerae were from Merck, Darmstadt, Germany.
The antiproliferative activity of cannabinoids (in concentrations of 1 mg/mL in methanol) and the plant extracts named Futu1 and Futu2 (the solutions were prepared by dissolving the substance in methanol to a concentration of 50 mg/mL) were tested against 6 cancer cell lines. Their cytotoxicity was also tested against one normal cell line. The tested mixtures of compounds were diluted in a culture medium to reach the final concentrations. Before adding the tested compounds (24 h prior), the cells were plated in 384-well plates (Greiner Bio-One) at a density of 1 × 10^3 (A549), 1.5 × 10^3 (MDA-MB-468, HT-29, MCF-7), or 2 × 10^3 (AGS, MCF-10A) cells per well. The MV4-11 cells were plated in 96-well plates (Corning) at a density of 5 × 10^3 cells per well. […]

[4] = test system: gastric adenocarcinoma AGS; experiment: Antiproliferative activity, SRB assay, AGS; assay type: cell-based, human; conditions: for IC50 AGS / IC50: 72 h incubation, SRB, mean ± SD; for Calculated Selectivity Index SI AGS: SI = IC50 MCF-10A / IC50 AGS; for IC50: Homo sapiens
[5] = test system: colon adenocarcinoma HT-29; experiment: Antiproliferative activity, SRB assay, HT-29; assay type: cell-based, human; conditions: for IC50 HT-29 / IC50: 72 h incubation, SRB, mean ± SD; for Calculated Selectivity Index SI HT-29: SI = IC50 MCF-10A / IC50 HT-29; for IC50: Homo sapiens, HT-29
[6] = test system: lung carcinoma A549; experiment: Antiproliferative activity, SRB assay, A549; assay type: cell-based, human; conditions: for IC50 A549 / IC50: 72 h incubation, SRB, mean ± SD; for Calculated Selectivity Index SI A549: SI = IC50 MCF-10A / IC50 A549; for IC50: Homo sapiens, A549
[7] = test system: lung (A549), colon (HT-29), gastric (AGS), and breast (MCF-7, ER+) cancer cell lines; experiment: Antiproliferative activity, SRB assay, summarised over the cancer cell lines; assay type: cell-based; conditions: Homo sapiens; 72 h, range across the four cancer cell lines
Experimental: as §1, with “The second extract, Futu 2, was selected for its higher monoterpene content (19.6%) in the terpene fraction in comparison to sesquiterpenes (80.4%) and its 49.49% content of cannabinoids. This extract was also obtained via pressurized extraction, using a pressure of 1 bar, a solvent mixture of hexane/isopropanol (7:3, v/v), and a temperature of −55 °C.” left out, “3). […]” for “3).”

Row | SMILES | Stimulation of MV4-11 cell growth [1] [%] | IC50 MCF-7 [2] [µg/mL] | Calculated Selectivity Index SI MCF-7 [2] | IC50 MCF-10A [3] [µg/mL] | IC50 AGS [4] [µg/mL] | Calculated Selectivity Index SI AGS [4] | IC50 HT-29 [5] [µg/mL] | Calculated Selectivity Index SI HT-29 [5] | IC50 A549 [6] [µg/mL] | Calculated Selectivity Index SI A549 [6] | IC50 [2] [µg/mL] | IC50 [3] [µg/mL] | IC50 [4] [µg/mL] | IC50 [5] [µg/mL] | IC50 [6] [µg/mL] | IC50 [7] [µg/mL]
1 | CCCCCc1cc(O)c2c(c1)OC(C)(C)[C@@H]1CCC(C)=C[C@@H]21 (relative stereo) [THC, (–)-trans-Δ^9-tetrahydrocannabinol] | 180 | 8.4 ± 1.26 (≈ 26.7 µM) | 1.33 | 11.13 ± 0.72 (≈ 35.4 µM) | 6.35 ± 1.35 (≈ 20.2 µM) | 1.75 | 3.73 ± 0.59 (≈ 11.9 µM) | 2.98 | 3.94 ± 0.44 (≈ 12.5 µM) | 2.82 | – | – | – | – | – | –
2 | CCCCCc1cc(O)c2c(c1)OC(C)(CCC=C(C)C)C=C2 (centres unmarked) [CBC, cannabichromene] | 140 | – | 1.39 | – | – | 1.9 | – | 1.77 | – | 3.23 | 7.56 ± 1.52 (≈ 24 µM) | 10.5 ± 0.46 (≈ 33.5 µM) | 5.53 ± 0.88 (≈ 17.6 µM) | 5.94 ± 1.86 (≈ 18.9 µM) | 3.26 ± 0.2 (≈ 10.4 µM) | –
3 | C=C(C)[C@@H]1CCC(C)=C[C@H]1c1c(O)cc(CCCCC)cc1O [CBD, cannabidiol] | 140 | – | 2.87 | – | – | 2.82 | – | 3.47 | – | 3.68 | 3.67 ± 0.55 (≈ 11.7 µM) | 10.6 ± 0.63 (≈ 33.5 µM) | 3.74 ± 0.28 (≈ 11.9 µM) | 3.04 ± 0.52 (≈ 9.67 µM) | 2.87 ± 0.24 (≈ 9.13 µM) | 2.87 to 3.74 (≈ 9.13 to 11.9 µM)
4 | C=C(C)[C@@H]1CCC(C)=C[C@H]1c1c(O)cc(CCC)cc1O [CBDV] | – | 8.43 ± 2.05 (≈ 29.4 µM) | 1.33 | 11.24 ± 0.26 (≈ 39.2 µM) | 8.4 ± 1.98 (≈ 29.3 µM) | 1.34 | 3.6 ± 0.4 (≈ 12.6 µM) | 3.12 | 6.22 ± 2.26 (≈ 21.7 µM) | 1.81 | – | – | – | – | – | –
5 | CCCCCc1cc(O)c(C/C=C(\C)CCC=C(C)C)c(O)c1 [CBG, cannabigerol] | – | – | 1.45 | – | – | 1.76 | – | 1.07 | – | 2.89 | 7.43 ± 1.43 (≈ 23.5 µM) | 10.7 ± 0.71 (≈ 33.9 µM) | 6.11 ± 1.31 (≈ 19.3 µM) | 10 ± 1.14 (≈ 31.7 µM) | 3.71 ± 0.46 (≈ 11.7 µM) | –
6 | CCCCCc1cc(O)c2c(c1)OC(C)(C)c1ccc(C)cc1-2 [CBN, cannabinol] | 140 | – | 1.87 | – | – | 1.75 | – | 1.78 | – | 3.27 | 5.79 ± 1.79 (≈ 18.7 µM) | 10.8 ± 0.68 (≈ 34.8 µM) | 6.18 ± 0.98 (≈ 19.9 µM) | 6.07 ± 2.11 (≈ 19.6 µM) | 3.3 ± 0.15 (≈ 10.6 µM) | –
